Holding throughout (assay type): cell-based
One assay relates to Cercospora beticola. Kind of assay: plate bioassay of volatile test mixtures, growth inhibition. Particulars: for inhibition of Cercospora beticola: 30 hr at 22° C., esters with 1:1 v/v propanoic acid and isobutryic acid (acids to ester 7:2 v/v), 9 ul, acids 7 ul. On the procedure:
(§1) FIG. 1 illustrates a plate bioassay to determine the bioactivity of various esters when combined with a 1:1 mix of the two organic acids as per Table 2. The test organisms were as follows—Cercospora (dark-lower left bottom) then clockwise—Phytophthora, Verticillium, Sclerotinia, Pythium. Fusarium, Trichoderma, Rhizoctonia, and Aspergillus. The streaks were Saccharomyces (far right bottom) then Candida, E coli and Bacillus (left bottom). A=control plate, and B=plate with System 1 after incubation for 30 hr.
(§2) FIG. 9 depicts the biological activities of various test mixtures against a panel of test microbes. A small plug of each organism was placed in the periphery of the PDA plate. In the center well was placed the test solution in the plastic cup holder. A control plate (A) was also set up. After 30 hr the growth of the test organisms was compared to that of the control and the % inhibition was calculated. The (B) plate contained the test mixture. Measurements were made 30 hr after plate set up.
(§3) FIG. 1. Indicates how the assays were done to yield the data sets in Table 1. The various esters were combined with a 1:1 mixture of propanoic acid and isobutryic acid and these were added 7:2 V/V with the ester to be tested.
(§4) Shown in Table 1, are the inhibition and killing effects of propanoic acid, and isobutryic acid together and alone and with various esters. The tests were conducted over the course of 30 hr at 22° C. Measurements were made on appropriate controls and thus the percentage of inhibition calculations could be made on treatments vs the growth on a control organism (non-treated). The bacteria and yeast like organisms were evaluated on the basis of relative growth rates after 30 hr. Those highlighted areas on the table show those compounds (esters) having the most compatibility with propanoic and isobutryic acid 1:1 v/v mixtures with the appropriate esters at a 7:2 ratio—Systems 1 and 2 above. It is from this test that Systems 1 and 2 were discovered. The acids were added at […] individually and combination of the esters with the acids were added at the […] in the plate assay.
(§5) Tests were conducted as similarly described for Systems 1 and 2 above (FIG. 9) to ascertain the biological activities of various test mixtures against a panel of test microbes. A small plug of each organism was placed in the periphery of the PDA plate. In the center well was placed the test solution in the plastic cup holder. A control plate (A) was also set up. After 30 hr the growth of the test organisms was compared to that of the control and the % inhibition was calculated. The (B) plate contained the test mixture. Measurements were made 30 hr after plate set up.

For a further assay, the system named is Phytophthora cinnamomi. The assay is described as above. The conditions noted are these: for inhibition of Phytophthora cinnamomi: 30 hr at 22° C., esters with 1:1 v/v propanoic acid and isobutryic acid (acids to ester 7:2 v/v), 9 ul, acids 7 ul. On the procedure:
as §1, §2, §3, §4, §5

For another assay, the system named is Pythium ultimum. Described as above. The conditions noted are these: for inhibition of Pythium ultimum: 30 hr at 22° C., esters with 1:1 v/v propanoic acid and isobutryic acid (acids to ester 7:2 v/v), 9 ul, acids 7 ul. As to the method: as §1, §2, §3, §4, §5
The next assay concerns Rhizoctonia solani. The assay is described as above. The conditions noted are these: for inhibition of Rhizoctonia solani: 30 hr at 22° C., esters with 1:1 v/v propanoic acid and isobutryic acid (acids to ester 7:2 v/v), 9 ul, acids 7 ul. As to the method:
as §1, §2, §3, §4, §5

A further assay concerns Trichoderma viridae. The description is as above. Particulars: for inhibition of Trichoderma viridae: 30 hr at 22° C., esters with 1:1 v/v propanoic acid and isobutryic acid (acids to ester 7:2 v/v), 9 ul, acids 7 ul. On the procedure:
as §1, §2, §3, §4, §5

A further assay has as its system Verticillium dahliae. The assay is described as above. The conditions noted are these: for inhibition of Verticillium dahliae: 30 hr at 22° C., esters with 1:1 v/v propanoic acid and isobutryic acid (acids to ester 7:2 v/v), 9 ul, acids 7 ul. On the procedure:
as §1, §2, §3, §4, §5

A further assay has as its system Sclerotinia sclerotiorum. Described as above. The conditions noted are these: for inhibition of Sclerotinia sclerotiorum: 30 hr at 22° C., esters with 1:1 v/v propanoic acid and isobutryic acid (acids to ester 7:2 v/v), 9 ul, acids 7 ul. On the procedure: as §1, §2, §3
The tests were conducted over the course of 30 hr at 22° C. Measurements were made on appropriate controls and thus the percentage of inhibition calculations could be made on treatments vs the growth on a control organism (non-treated). The bacteria and yeast like organisms were evaluated on the basis of relative growth rates after 30 hr. […] The acids were added at […] individually and combination of the esters with the acids were added at the […] in the plate assay.
as §5

In a further assay the test system is Bacillus subtilus. The experiment in a line: plate bioassay of volatile test mixtures, relative growth of streak. On the procedure:
as §1, §2, §3, §4, §5

The subject of another assay is Candida albicans. The assay is described as above. On the procedure: as §1, §2, §3, §4, §5
A further assay deals with Escherichia coli. The assay is described as above. On the procedure: as §1, §2, §3, §4, §5
A further assay deals with Saccharomyces cerevicae. The assay is described as above. Particulars: for growth of Saccharomyces cerevicae: relative growth after 30 hr at 22° C., esters with 1:1 v/v propanoic acid and isobutryic acid (7:2 v/v), 9 ul, acids 7 ul. As to the method:
as §1, §2, §3, §4, §5

Another assay deals with Aspergillus flavus. The experiment in a line: plate bioassay of volatile test mixtures, growth inhibition. Particulars: Table 4; 30 hr at room temperature, compared to control. On the procedure: as §2, §5
(§6) All testing was done according to the methods in Table 4

The test system of another assay is Fusarium solani. The description is as above. Particulars: Table 4; 30 hr at room temperature, compared to control. As to the method:
as §2, §5, §6

Another assay relates to Aspergillus fumigatus. The assay is described as above. The conditions noted are these: 30 hr at 22° C.; esters with 1:1 v/v propanoic acid and isobutryic acid (acids to ester 7:2 v/v), 9 ul; acids 7 ul. As to the method: as §1, §3, §4
For a further assay, the system named is Fusarium subglutinans. The description is as above. The conditions noted are these: 30 hr at 22° C.; esters with 1:1 v/v propanoic acid and isobutryic acid (acids to ester 7:2 v/v), 9 ul; acids 7 ul. On the procedure: as §1, §3, §4
Where [1] appears, read: Table 4, 30 hr at room temperature, compared to control.
[2] abbreviates: Table 4, 30 hr at room temperature.
The mark [3] stands for this setting: relative growth after 30 hr at 22° C., esters with 1:1 v/v propanoic acid and isobutryic acid (7:2 v/v), 9 ul, acids 7 ul.

On to Isoamyl Hexonates [reference compound], for which, in the assay on Cercospora beticola (setting [1]), the “percent inhibition of the growth of Cercospora beticola” value turned out to be 83%. Further, in the assay with Phytophthora cinnamomi (setting [1]), the “percent inhibition of the growth of Phytophthora cinnamomi” value is 13%. Moreover, the “percent inhibition of the growth of Pythium ultimum” value in the assay with Pythium ultimum (setting [1]) came out at 28%. For the same compound, in the assay with Rhizoctonia solani (setting [1]), the “percent inhibition of the growth of Rhizoctonia solani” value was 0%. Also, the “percent inhibition of the growth of Trichoderma viridae” value in the assay on Trichoderma viridae (setting [1]) was found to be 13%. The “percent inhibition of the growth of Verticillium dahliae” value in the assay on Verticillium dahliae (setting [1]) was determined as 0%. The “percent inhibition of the growth of Sclerotinia sclerotiorum” value in the assay with Sclerotinia sclerotiorum (setting [1]) turned out to be 66%. The “growth of Bacillus subtilus” value in the assay with Bacillus subtilus (setting [2]) is given as “Yes”. Further, the “growth of Candida albicans” value in the assay on Candida albicans (setting [2]) was “Yes”. The “growth of Escherichia coli” value in the assay on Escherichia coli (setting [2]) was “Yes”. For the same compound, the “growth of Saccharomyces cerevisiae” value in the assay with Saccharomyces cerevicae (setting [2]) is “Yes”. Further, the “percent inhibition of the growth of Aspergillus flavus” value with Aspergillus flavus is 66%. For the same compound, in the assay with Fusarium solani, the “percent inhibition of the growth of Fusarium solani” value was 83%.
For the compound `CC(C)COC(=O)CC(C)C` [Isobutyl Isovalerate], the “inhibition of Cercospora beticola” value in the assay on Cercospora beticola was found to be 95%. In addition, in the assay on Phytophthora cinnamomi, the “inhibition of Phytophthora cinnamomi” value came to 100%. Besides, in the assay with Pythium ultimum, the “inhibition of Pythium ultimum” value amounted to 100%. Also, the “inhibition of Rhizoctonia solani” value with Rhizoctonia solani came out at 94%. In addition, the “inhibition of Trichoderma viridae” value in the assay with Trichoderma viridae stood at 20%. Also, in the assay with Verticillium dahliae, the “inhibition of Verticillium dahliae” value worked out at 96%. For the same compound, the “inhibition of Sclerotinia sclerotiorum” value in the assay on Sclerotinia sclerotiorum amounted to 0%. Also, the “inhibition of Aspergillus fumigatus” value with Aspergillus fumigatus is listed as 0%. In the assay with Fusarium subglutinans, the “inhibition of Fusarium subglutinans” value is on record as 67%. The “growth of Bacillus subtilus” value in the assay on Bacillus subtilus (setting [3]) is given as “Inhibited”. Moreover, the “growth of Candida albicans” value in the assay on Candida albicans (setting [3]) is given as “Growth Observed”. For the same compound, the “growth of Escherichia coli” value with Escherichia coli (setting [3]) was “Inhibited”. Besides, in the assay with Saccharomyces cerevicae, the “growth of Saccharomyces cerevicae” value was “Growth Observed”.
For the compound `CCCCOC(=O)C(C)C` [Butyl Isobutyrate], the “inhibition of Cercospora beticola” value in the assay with Cercospora beticola turned out to be 95%. Also, in the assay with Phytophthora cinnamomi, the “inhibition of Phytophthora cinnamomi” value is recorded as 0%. The “inhibition of Pythium ultimum” value with Pythium ultimum is on record as 100%. The “inhibition of Rhizoctonia solani” value in the assay with Rhizoctonia solani is on record as 97%. Further, the “inhibition of Trichoderma viridae” value in the assay with Trichoderma viridae stood at 40%. The “inhibition of Verticillium dahliae” value in the assay on Verticillium dahliae worked out at 60%. Further, in the assay with Sclerotinia sclerotiorum, the “inhibition of Sclerotinia sclerotiorum” value worked out at 0%. In the assay on Aspergillus fumigatus, the “inhibition of Aspergillus fumigatus” value came to 0%. Also, the “inhibition of Fusarium subglutinans” value with Fusarium subglutinans is given as 0%. Further, the “growth of Bacillus subtilus” value in the assay on Bacillus subtilus (setting [3]) is “No Growth”. In the assay with Candida albicans (setting [3]), the “growth of Candida albicans” value is “Growth Observed”. Moreover, the “growth of Escherichia coli” value in the assay with Escherichia coli (setting [3]) is recorded as “No Growth”. Further, the “growth of Saccharomyces cerevicae” value in the assay with Saccharomyces cerevicae is given as “Growth Observed”.
Regarding `CC(C)OC(=O)C(C)C` [Isopropyl Isobutyrate], the “inhibition of Cercospora beticola” value in the assay with Cercospora beticola is given as 95%. Moreover, the “inhibition of Phytophthora cinnamomi” value in the assay with Phytophthora cinnamomi is −33%. Also, the “inhibition of Pythium ultimum” value with Pythium ultimum was 100%. In the assay on Rhizoctonia solani, the “inhibition of Rhizoctonia solani” value stood at 43%. For the same compound, the “inhibition of Trichoderma viridae” value in the assay on Trichoderma viridae came to 20%. For the same compound, the “inhibition of Verticillium dahliae” value with Verticillium dahliae was determined as 96%. Besides, the “inhibition of Sclerotinia sclerotiorum” value in the assay on Sclerotinia sclerotiorum is on record as 30%. The “inhibition of Aspergillus fumigatus” value in the assay with Aspergillus fumigatus stood at 0%. In addition, the “inhibition of Fusarium subglutinans” value with Fusarium subglutinans came to 33%. Also, the “growth of Bacillus subtilus” value with Bacillus subtilus (setting [3]) is “No Growth”. The “growth of Candida albicans” value with Candida albicans (setting [3]) was “Growth Observed”. Further, the “growth of Escherichia coli” value in the assay with Escherichia coli (setting [3]) is “No Growth”. Moreover, the “growth of Saccharomyces cerevicae” value with Saccharomyces cerevicae is “Growth Observed”.

For the origin of these results see patent US12097173B2, “Volatile organic compound formulations having antimicrobial activity” (priority 2019, dated 2024).
